Measured values: ChEMBL document CHEMBL1126354, “Structural analysis of 2-aryl-1,3-dione compounds as inhibitors of 5-lipoxygenase” (Bioorg Med Chem Lett, 1992)

biological target: T1, Polyunsaturated fatty acid 5-lipoxygenase (Rattus norvegicus) (UniProt P12527); assay: The compound was evaluated in vitro for inhibition of 5-lipoxygenase activity in RBL-1 cells at 20 uM; format: cell-based
T1 sequence (whole entry): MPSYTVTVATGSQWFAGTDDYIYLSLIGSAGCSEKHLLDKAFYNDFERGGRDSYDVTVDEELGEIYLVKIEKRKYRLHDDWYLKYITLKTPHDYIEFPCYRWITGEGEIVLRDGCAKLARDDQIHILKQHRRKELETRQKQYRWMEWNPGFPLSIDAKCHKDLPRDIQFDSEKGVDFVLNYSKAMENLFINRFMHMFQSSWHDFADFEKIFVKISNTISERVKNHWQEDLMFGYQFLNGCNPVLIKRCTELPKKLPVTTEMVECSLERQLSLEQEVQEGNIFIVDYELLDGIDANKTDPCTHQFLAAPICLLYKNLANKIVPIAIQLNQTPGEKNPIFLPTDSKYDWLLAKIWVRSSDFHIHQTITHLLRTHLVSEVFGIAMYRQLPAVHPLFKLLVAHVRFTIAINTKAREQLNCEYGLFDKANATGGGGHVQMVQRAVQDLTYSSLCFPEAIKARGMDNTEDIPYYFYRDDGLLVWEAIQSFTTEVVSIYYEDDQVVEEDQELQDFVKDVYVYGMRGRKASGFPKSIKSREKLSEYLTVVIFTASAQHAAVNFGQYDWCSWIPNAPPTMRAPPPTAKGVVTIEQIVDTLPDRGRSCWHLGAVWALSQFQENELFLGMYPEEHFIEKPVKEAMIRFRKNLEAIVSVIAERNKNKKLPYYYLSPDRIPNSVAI

inhibition | Compound
50% | O=C1c2ccccc2-c2ccccc2C(=O)C1c1ccccc1

biological target: T2, Polyunsaturated fatty acid 5-lipoxygenase (Rattus norvegicus, UniProt P12527); assay: In vitro inhibition of 5-lipoxygenase activity in RBL-1 cells.; format: cell-based
T2 sequence (P12527 whole entry): T1 sequence (whole entry)

IC50 | Compound
9.1 µM | COc1ccc(C2C(=O)c3ccccc3C2=O)cc1 [ANISINDIONE]
15 µM | CSC1(c2ccccc2)C(=O)c2ccccc2C1=O
25 µM | O=C1CCCCC(=O)C1c1ccc2c(c1)OCO2
3.2 µM | O=C1c2ccccc2C(=O)C1c1ccc2ccccc2c1
12 µM | CCCCc1ccc(C2C(=O)CCCCCC2=O)cc1
2.3 µM | O=C1c2ccc(Br)cc2C(=O)C1(F)c1ccccc1 (stereo not drawn)
15 µM | O=C1c2ccccc2C(=O)C1c1ccccc1 [PHENINDIONE]
41 µM | O=C1CCCCC(=O)C1c1ccccc1
5 µM | O=C1c2ccccc2C(=O)C1c1ccc(Cl)cc1 [CLORINDIONE]
2 µM | O=C1c2ccccc2C(=O)C1(F)c1ccc2ccccc2c1
4.5 µM | CN(C)c1ccc(C2C(=O)c3ccccc3C2=O)cc1
2.7 µM | CSc1ccc(C2C(=O)c3ccccc3C2=O)cc1
9.6 µM | O=C1c2ccccc2C(=O)C1c1ccc(F)cc1 [FLUINDIONE]

Compound | IC50
CC(C)(C)c1cc(C2C(=O)c3ccccc3C2=O)cc(C(C)(C)C)c1 | 2.8 µM
O=C1c2ccccc2C(=O)C1(Sc1ccccc1)c1ccccc1 | 4.8 µM
CCCCc1ccc(C2C(=O)c3ccccc3C2=O)cc1 | 1.7 µM
O=C1c2ccccc2C(=O)C1(F)c1ccccc1 | 1.7 µM

biological target: T2, Polyunsaturated fatty acid 5-lipoxygenase; assay: The compound was evaluated in vitro for inhibition of 5-lipoxygenase activity in RBL-1 cells; No significant inhibitory activity up to 30 uM; format: cell-based

IC50 | Compound
Not Active | O=C(O)c1ccc(C2C(=O)c3ccccc3C2=O)cc1

biological target: T2, Polyunsaturated fatty acid 5-lipoxygenase; assay: The compound was evaluated in vitro for inhibition of 5-lipoxygenase activity in RBL-1 cells.; format: cell-based

IC50 | Compound
28 µM | O=C1c2ccccc2C(=O)C1C1C(=O)c2ccccc2C1=O

biological target: T2, Polyunsaturated fatty acid 5-lipoxygenase; assay: In vitro for inhibition of 5-lipoxygenase activity in RBL-1 cells.; format: cell-based

IC50 | Compound
Not Active | O=C1c2cccc3cccc(c23)C(=O)C1c1ccccc1
Not Active | C=CCC1C(=O)c2ccccc2C1=O
Not Active | O=C1c2ccccc2C(=O)C1[N+](=O)[O-]
Not Active | O=C1c2ccccc2C(=O)C1(c1ccccc1)C1(c2ccccc2)C(=O)c2ccccc2C1=O
Not Active | O=C(c1ccccc1)C(C(=O)c1ccccc1)c1ccccc1
Not Active | O=C1c2ccccc2[C@@H](O)[C@H]1c1ccccc1
Not Active | O=C1C(c2ccccc2)C(=O)C2CC=CCC12 (stereo not drawn)
Not Active | COc1ccc(C=C2C(=O)c3ccccc3C2=O)cc1
Not Active | O=C1CC(=O)c2ccccc21
Not Active | O=C1c2ccccc2C(=O)N1c1ccccc1 [N-PHENYL-PHTHALIMIDE]
Not Active | O=C1c2ccccc2[C@H](O)[C@H]1c1ccccc1
Not Active | COC1=C(c2ccccc2)C(=O)c2ccccc21
Not Active | O=C1CCC(=O)C1c1ccccc1
Not Active | O=C1CCCC(=O)C1c1ccccc1
Not Active | O=C1C(=Cc2ccccc2)C(=O)c2ccccc21

biological target: T1, Polyunsaturated fatty acid 5-lipoxygenase (Rattus norvegicus); assay: The compound was evaluated in vitro for inhibition of 5-lipoxygenase activity in RBL-1 cells at 100 uM; format: cell-based

inhibition | Compound
45% | O=C1CCCCCC(=O)C1c1ccccc1

biological target: T1, Polyunsaturated fatty acid 5-lipoxygenase (Rattus norvegicus); assay: The compound was evaluated in vitro for inhibition of 5-lipoxygenase activity in RBL-1 cells at 30 uM; format: cell-based

inhibition | Compound
45% | O=C1C(c2ccccc2)=C(c2ccccc2)C(=O)C1c1ccccc1
14% | O=C1c2ccccc2C(=O)C1c1cccc2ccccc12
